Legend:
Assay type in all cases: cell-based, ovine
PKC = PKC activity, dot-blot of PKC-phosphorylated proteins; settings: PAEC; 4αPDD 10 μM, 2, 4 and 6 hours
Procedure: (§1) Primary cultures of ovine pulmonary arterial endothelial cells (PAEC) were isolated as described previously (L. K. Kelly, Am J Physiol Lung Cell Mol Physiol, 286(5), L984-91 (2004)). Briefly, cells were maintained in Dulbecco's modified Eagle medium (DMEM) supplemented with 10% fetal calf serum (Hyclone, Logan, UT), antibiotics/antimycotic (500 IU Penicillin, 500 μg/ml Streptomycin, 1.25 μg/ml Amphotericin B; MediaTech, Herndon, VA) at 37° C. in a humidified atmosphere with 5% CO2 and 95% air. Cells were used for experiments between passages 9-14, seeded at ˜50% confluence, and utilized when fully confluent.
Activation of PKC in control and 4αPDD-treated EC was evaluated using dot-blot method and antibodies specific to PKC-phosphorylated proteins. The cell lysates were transferred on nitrocellulose membrane using Bio-Dot Microfiltration apparatus (Bio-Rad) according to Instruction Manual. To detect and evaluate levels of PKC-phosphorylated proteins, Phospho-(Ser) PKC Substrate rabbit polyclonal antibody (Cell Signaling) was used. After visualization of PKC-phosphorylated proteins, the membrane was stripped and re-probed with β-actin antibody for normalization.

PAEC = assay: Mitochondrial bioenergetics (XF24 Analyzer, OCR) in PAEC; settings: 4αPDD
Procedure: as §1
The XF24 Analyzer (Seahorse Biosciences) and XF CELL MITO STRESS™ Test Kit (#101706-100; Seahorse Biosciences) were used for the mitochondrial bioenergetic analyses. The optimum number of cells/well was determined to be 75,000/0.32 cm^2. At the end of each study, the XF24 culture microplates were incubated in a CO2-free XF prep station at 37° C. for 45 min to allow temperature and pH calibration. Subsequently, each well was sequentially injected Oligomycin (1 μM final concentration), carbonyl cyanide 4-(trifluoromethoxy) phenylhydrazone (FCCP, 1 μM final concentration), and Rotenone+antimycin A (1 μM final concentration of each) and measured the oxygen consumption rate (OCR). These agents were used to determine basal mitochondrial respiration, reserve respiratory capacity and maximal respiratory capacity measurements in pmols/min of oxygen consumed.

[1] = tested on: eNOS phosphorylation at T495; assay: Western blot of pT495-eNOS in PAEC
Procedure: as §1
Protein extracts were prepared using lysis buffer (50 mM Tris-HCl, pH 7.6, 0.5% Triton X-100, 20% glycerol) containing HALT™ protease inhibitor cocktail (Pierce Laboratories, Rockford, IL). The extracts were then subjected to centrifugation (15,000 g for 15 min at 4° C.). Supernatant fractions were assayed for protein concentration using the Bradford reagent (Bio-Rad, Richmond, CA) then used for Western blot analyses. Protein extracts (25-50 μg) were separated on Long-Life 4-20% Tris-SDS-Hepes gels and electrophoretically transferred to IMMUNO-BLOT™ PVDF membrane (Bio-Rad Laboratories, Hercules, CA) Immunoblotting was then carried out using the appropriate antibodies in Tris-base buffered saline with 0.1% Tween 20 and 5% nonfat milk. After washing, the membranes were probed with horseradish peroxidase-conjugated goat antiserum to rabbit or mouse. Reactive bands were visualized using chemiluminescence (Super Signal West Femto; Pierce, Rockford, IL) on a LI-COR Odyssey image station (Lincoln, NE). Bands were quantified using LI-COR Image Station software. Loading was normalized by reprobing the membranes with an antibody specific to β-actin.

PAEC monolayers = assay: Trans endothelial resistance (TER) of PAEC monolayers
Procedure: as §1
Transendothelial Electrical Resistance (TER) was determined to characterize the integrity of PAEC monolayers using an electrical cell-substrate impedance sensing (ECIS) instrument ECIS Z-Theta (Applied BioPhysics, Troy, NY) as previously described (J. N. Gonzales, Vascul Pharmacol, 62(2), 63-71 (2014); S. Aggarwal, American Journal of Respiratory Cell and Molecular Biology, 50(3), 614-25 (2014)). The cells were plated in 8-well ECIS arrays (Applied BioPhysics) in complete cell culture medium (DMEM supplemented with 10% FBS) and grown to 100% confluency for 2 days. […] After a baseline measurement, the EC were treated with 4αPDD, PMA, the eNOS pT495 decoy peptide, or vehicle at the indicated concentrations, and changes in TER were recorded in real time.

[2] = tested on: mitochondrial redistribution of eNOS; assay: Immunofluorescent microscopy of eNOS mitochondrial redistribution in PAEC
Procedure: as §1
PAEC were grown on cover glass for three days after reaching 100% confluence, and fixed with 4% paraformaldehyde (Thermo Fisher Scientific) for 30 min, permeabilized with 100% cold methanol at −20° C. for 5 min Cell then blocked with 1% BSA for 1 hour, and later incubated with first antibody overnight at 4° C. then secondary antibody at room temperature for 1 hour. Finally, cells were mounted on microscope slides using ProLong Glass Antifade Mountant, (Invitrogen, Carlsbad, CA, Cat #P36980). […] The images were analyzed with ImagePro Plus 7.0 (W. Casavan, Microscopy Today, 11(6), 48-50 (2003)) or ImageJ software to evaluate the colocalization of fluorescent.

NOS-derived superoxide = NOS-derived superoxide by EPR (eNOS uncoupling) in PAEC
Procedure: as §1
Superoxide levels were estimated by electron paramagnetic resonance (EPR) assay using the spin-trap compound 1-hydroxy-3-methoxycarbonyl-2,2,5,5-tetramethylpyrrolidine HCl (CMH, Axxora) as described previously. Superoxide in PAEC was trapped by incubating PAEC with 20 μl of CMH stock solution (20 mg/ml) for 1 h, followed by trypsinization and centrifugation at 500 g. The cell pellet was suspended in 35 μl DPBS and loaded into a capillary tube which was then analyzed with a MiniScope MS200 EPR machine (Magnettech, Berlin, Germany). Pre-incubating cells or tissue with 100 μM ethylisothiourea (ETU, Sigma-Aldrich) for 30 min followed by incubation with CMH measured NOS-derived superoxide. EPR spectra were analyzed using ANALYSIS v.2.02 software (Magnettech). Differences between levels of samples incubated in the presence and absence of ETU were used to determine NOS-dependent superoxide generation.

Compound	PKC activity (PKC)	maximum respiratory capacity (PAEC)	mitochondrial basal O2 consumption (PAEC)	spare respiratory capacity (PAEC)	eNOS phosphorylation at T495 ([1]; 4αPDD)	TER (barrier integrity) (PAEC monolayers; 4αPDD 0-15 μM)	mitochondrial redistribution of eNOS ([2]; 4αPDD)	NOS derived superoxide generation (eNOS uncoupling) (NOS-derived superoxide; 4αPDD)	PMA-mediated increase in pT495-eNOS ([1]; d-peptide 1 μg/ml, PMA 100 nm, 2 h)	barrier disruption induced by 4αPDD (normalized TER) (PAEC monolayers; d-peptide plus 4αPDD)	PMA-induced mitochondrial redistribution of eNOS ([2]; d-peptide and PMA)	eNOS uncoupling (NOS-derived superoxide levels) (NOS-derived superoxide; d-peptide and PMA)
CCCCCCCCCC(=O)O[C@@H]1[C@@H](C)[C@@]2(O)[C@@H](C=C(CO)C[C@@]3(O)C(=O)C(C)=C[C@@H]23)[C@@H]2C(C)(C)[C@]12OC(=O)CCCCCCCCC [4αPDD, 4α-Phorbol-12,13 didecanoate]	increases PKC activity	reductions	reductions	reductions	increase in eNOS phosphorylation at T495	dose-dependent decrease in TER	induces the mitochondrial redistribution of eNOS	increases in NOS derived superoxide generation				
HRKKRRQRRITRKKTFKEVA [d-peptide]									attenuated the PMA-mediated increase in pT495-eNOS	reduced	attenuated	reduced eNOS uncoupling

Source: patent US20240002437A1, “COMPOSITIONS AND METHODS OF TREATING INFLAMMATORY LUNG DISEASES” (priority 2020, published 2024)
